PubChem BioAssay AID1996
Converted amounts (≈) assume the structure as drawn.

Details: buffer; pH 7.4; 200.0 µM
In the case of CCCN(Cc1ccccc1)C(=S)Nc1cccc(C)c1C, the solubility kinetic is reported as less than 0.3 µg/mL. Cc1nc(N)nc(COc2ccccc2)n1 showed a solubility kinetic greater than 32.4 µg/mL. For O=S(=O)(Cc1ccccc1)Nc1ccc(F)cc1, the solubility kinetic was greater than 39.8 µg/mL. COc1ccc(Cn2c(=O)cc(N)n(-c3ccccc3C)c2=O)cc1 gave a solubility kinetic greater than 50.6 µg/mL. For Cc1cc(C)cc(N=C2NC(=O)CS2)c1, the solubility kinetic was greater than 33 µg/mL. For CC(=O)N/C(=C\c1ccccc1)C(=O)OCc1ccccc1, the solubility kinetic was greater than 44.3 µg/mL. NC(CCCCCP(=O)(c1ccccc1)c1ccccc1)C(=O)O (configuration not stated) showed a solubility kinetic of 40.4 µg/mL (≈ 117 µM). Compound CC(C)N1C(=O)C(=O)N(CC(=O)N2CCc3ccccc32)C1=O has a solubility kinetic greater than 47.3 µg/mL. With O=c1c2ccccc2ncn1CCOCCOc1ccc([N+](=O)[O-])cc1 the solubility kinetic was 17.1 µg/mL (≈ 48.1 µM). Work on Cc1c(Cl)cccc1NC(=O)C1COc2ccccc2O1 (configuration not stated) yielded a solubility kinetic of 30.6 µg/mL (≈ 101 µM). CC(C)Cc1nnc(NC(=O)CCC(=O)NC2CC2)s1 showed a solubility kinetic greater than 44.5 µg/mL. With COc1ccc(Cl)cc1C(=O)Nc1ccc2c(c1)OCCO2 the solubility kinetic was 0.9 µg/mL (≈ 2.81 µM). O=C(NCc1ccccc1)C12CC3CC(CC(Cl)(C3)C1)C2 gave a solubility kinetic of 5 µg/mL (≈ 16.5 µM). Work on COc1ccccc1C(=O)Nc1sc2c(c1C(N)=O)CCCC2 yielded a solubility kinetic of less than 0.4 µg/mL. For Clc1ccc2nc(-c3ccc4c(c3)OCO4)cn2c1, the solubility kinetic was less than 0.3 µg/mL. For CC(O)CNC12CC3CC(CC(C3)C1)C2 (configuration not stated), the solubility kinetic was 29.6 µg/mL (≈ 141 µM). Compound N/C(=N\OC(=O)c1ccc(Cl)cc1[N+](=O)[O-])c1cccnc1 has a solubility kinetic of 12.5 µg/mL (≈ 39 µM). For COc1ccc(NC(=O)c2c(N)no[n+]2[O-])cc1, the solubility kinetic was 3 µg/mL (≈ 12 µM). Work on CCc1cccc(C)c1NC(=O)CC(C)(C)CC(=O)O yielded a solubility kinetic greater than 41.6 µg/mL. Work on Cc1ccc(/C(O)=C2\C(=O)C(=O)N(C)C2c2ccc([N+](=O)[O-])cc2)cc1 (configuration not stated) yielded a solubility kinetic greater than 52.9 µg/mL. COc1ccc(OC)c2nc(-c3cccnc3)ccc12 gave a solubility kinetic greater than 39.9 µg/mL. In the case of COc1ccccc1NC(=O)Cn1cc(C(=O)c2ccco2)c2ccccc21, the solubility kinetic is reported as 1.2 µg/mL (≈ 3.21 µM). Compound CC(C)(C)n1cnc2cc(NC(=O)c3ccccc3)ccc21 has a solubility kinetic greater than 44 µg/mL. Compound Cc1ccccc1OCc1nc(-c2cccnc2)no1 has a solubility kinetic of 30.2 µg/mL (≈ 113 µM). Compound O=C(O)COc1ccc(S(=O)(=O)N2CCCC2)cc1 has a solubility kinetic greater than 42.8 µg/mL. Cc1ccsc1C1C(C#N)=C(N)OC2=C1C(=O)CC(C)C2 (configuration not stated) gave a solubility kinetic of 38.7 µg/mL (≈ 129 µM). In the case of COC(=O)C1CCN(C(=O)/C=C/c2ccc3c(c2)OCO3)CC1, the solubility kinetic is reported as 34 µg/mL (≈ 107 µM). O=C(COC(=O)Cc1ccc(F)cc1)NC1CCCCC1 showed a solubility kinetic greater than 44 µg/mL. COc1ccccc1N1CCN(Cc2ccc(O)c3ncccc23)CC1 gave a solubility kinetic of 7.5 µg/mL (≈ 21.5 µM). O=C(Cc1cccs1)NCCc1ccc(F)cc1 gave a solubility kinetic greater than 39.5 µg/mL. Work on Cc1ccc(C(=O)Nc2ccccc2C(=O)Nc2ccccn2)cc1Cl yielded a solubility kinetic of less than 0.3 µg/mL. In the case of O=C(CN1C(=O)c2cccc([N+](=O)[O-])c2C1=O)NNC(=O)c1ccc(F)cc1, the solubility kinetic is reported as greater than 57.9 µg/mL. COc1ccc(/C=C/C(=O)NCCCN2CCCCCC2)cc1 gave a solubility kinetic greater than 47.5 µg/mL. With Cc1noc(/C=C/c2cccnc2)c1[N+](=O)[O-] the solubility kinetic was 33.7 µg/mL (≈ 146 µM). CN(C)CCOC1c2ccccc2-c2ccccc21.O=C(O)C(=O)O showed a solubility kinetic greater than 51.5 µg/mL. Compound Cc1cc(C)c(NC(=O)COC(=O)C2CCC2)c(Cl)c1 has a solubility kinetic of 42.2 µg/mL (≈ 143 µM). CCOc1ccc(/C=N/OCC(=O)Nc2ccc3c(c2)OCO3)cc1 showed a solubility kinetic of 5.2 µg/mL (≈ 15.2 µM). In the case of Cc1ccc(CC(=O)O/N=C(\N)c2ccncc2)cc1, the solubility kinetic is reported as 18.1 µg/mL (≈ 67.2 µM). Clc1ccc2c(NCc3ccccc3)ccnc2c1 showed a solubility kinetic of 19 µg/mL (≈ 70.7 µM). Cl.OC(CNCc1ccccc1)COCc1ccc(Cl)cc1 (configuration not stated) gave a solubility kinetic of 34.2 µg/mL. C=CCn1c(SCC#N)nnc1-c1ccc2ncccc2c1 showed a solubility kinetic greater than 46.1 µg/mL. Work on N#Cc1ccc(C(=O)NC23CC4CC(CC(C4)C2)C3)cc1 yielded a solubility kinetic of 0.8 µg/mL (≈ 2.85 µM). CC1(C(=O)NCCOc2ccccc2Cl)CC1(Cl)Cl (configuration not stated) showed a solubility kinetic greater than 48.4 µg/mL. In the case of Cc1ccc(C)c(OCCCCN2CCNCC2)c1C.O=C(O)C(=O)O, the solubility kinetic is reported as greater than 55 µg/mL. Compound CC1C2NC(=O)N(Cc3ccccc3)C1(C)Oc1ccccc12 (configuration not stated) has a solubility kinetic of 20.9 µg/mL (≈ 67.8 µM). COC(=O)c1c(C)[nH]c(C(=O)CN2C(=O)C3CC=CCC3C2=O)c1C (configuration not stated) showed a solubility kinetic greater than 51.7 µg/mL. With CN(CC(=O)Nc1cccc(C#N)c1)Cc1ccc(Cl)cc1 the solubility kinetic was 27.9 µg/mL (≈ 88.9 µM).
